The text below walks through data of patent US11185539B2 (priority 2017, dated 2021).

SMILES strings stand for the structures.

Data set [1] has as its system C57BL/6N mice with angiotensin II-induced diastolic heart failure. Briefly: Hemodynamic measurement (MILLAR), therapeutic model. It counts as in vivo. Particulars: therapeutic: Bufalin 0.5 mg/kg, Lycorine 4.5 mg/kg; week 8. As to the method:
(§1) Diastolic heart failure (HF) was induced in C57BL/6N mice via implantation of angiotensin II filled minipumps (see Example 3). In difference to Example 3, C57BL/6N mice were infused with 3 mg/kg/day angiotensin II by subcutaneously implanted minipumps for eight weeks.
(§2) Next, Bufalin or Lycorine (dissolved in DMSO) or the solvent DMSO alone (as control) were injected intraperitoneally (i.p) every other day until the endpoint, starting two weeks after start of angiotensin II-infusion (see FIG. 11).
Diastolic HF was induced in C57BL/6 mice and Bufalin or Lycorine were injected as indicated in Example 5. Eight weeks after the operation, hemodynamic measurements of the mice were assessed (n=6-7 per group) by treating the mice with said compounds (Bufalin: 0.5 mg/kg, Lycorine 4.5 mg/kg).

Data set [2] concerns kidney and liver. Briefly: Kidney and liver histology (HE, PAS), angiotensin II model, fourteen days. It counts as in vivo, mice. Particulars: Bufalin 0.5, Lycorine 4.5 mg/kg; fourteen days after the operation. The protocol: Again, HF was induced in mice (Example 3) and Bufalin (0.5 mg/kg) as well as Lycorine (4.5 mg/kg) were injected as indicated in Example 3. Fourteen days after the operation, kidneys and livers were subjected to histological assessment via Hematoxylin and Eosin (HE) and Periodic acid-Schiff (PAS) stain (n=2-4 per group) (see FIGS. 28A and B).

Data set [3] concerns kidney and liver. Briefly: Kidney and liver histology (HE, PAS), therapeutic model, eight weeks. The conditions noted are these: therapeutic approach; Bufalin 0.5, Lycorine 4.5 mg/kg; eight weeks after the operation. It counts as in vivo, mice. As to the method: HF was induced in mice (Example 5) and Bufalin (0.5 mg/kg) as well as Lycorine (4.5 mg/kg) were injected as indicated in Example 5. Eight weeks after the operation, kidneys and livers were subjected to histological assessment via Hematoxylin and Eosin (HE) and Periodic acid-Schiff (PAS) stain (n=4 per group).

Data set [4] in a line: Myocardial and plasma concentrations, LC and QTOF-MS. The class given is in vivo, mice. The conditions noted are these: 9 minutes after injection; Bufalin 0.5, Lycorine 4.5 mg/kg. The protocol: Plasma and hearts of C57BL/6N mice were harvested 9 minutes after injection with natural substances Bufalin (0.5 mg/kg) or Lycorine (4.5 mg/kg) (dissolved in DMSO). After extraction of the substances, Bufalin and Lycorine were quantified by liquid chromatography (LC) and quadrupole time-of-flight mass spectrometry (QTOF-MS) (see FIG. 30).

The test system of data set [5] is rat renal fibroblast cell line NRK49F. Briefly: Proliferation of rat renal fibroblast cell line NRK49F, BrdU-ELISA. It counts as cell-based. Particulars: 24 h; for proliferation of renal fibroblasts (NRK49F): Lycorine 1, 5, 10 μM, Bufalin 0.1, 1, 10 μM. As to the method:
(§3) Cells of the rat renal fibroblast cell line NRK49F and primary human pulmonary fibroblasts (HPFs) were treated with Lycorine (1 μM, 5 μM and 10 μM) or Bufalin (0.1 μM, 1 μM, 10 μM) for 24 h and proliferation of respective fibroblasts was measured by BrdU-ELISA (see FIG. 39).
(In general: In an ELISA, binding on a coated surface is turned into a signal by an enzyme label.)

In data set [6] the test system is primary human pulmonary fibroblasts (HPFs). Kind of data set: Proliferation of primary human pulmonary fibroblasts, BrdU-ELISA. The class given is cell-based. Particulars: 24 h; for proliferation of pulmonary fibroblasts (HPFs): Lycorine 1, 5, 10 μM, Bufalin 0.1, 1, 10 μM. As to the method:
as §3

Data set [7] concerns C57BL/6N mice with angiotensin II-induced diastolic heart failure. Briefly: Echocardiography in therapeutic murine model (angiotensin II for eight weeks). The class given is in vivo. The conditions noted are these: therapeutic: Bufalin 0.5 mg/kg i.p. every other day from week 2; week 8. The protocol:
as §1, §2
Diastolic HF was induced in C57BL/6 mice and Bufalin or Lycorine were injected as indicated in Example 5. Eight weeks after the operation, cardiac function of the mice was assessed echocardiographically (n=5-12 per group) by treating the mice with said compounds (Bufalin: 0.5 mg/kg, Lycorine 4.5 mg/kg).
A decrease of the Myocardial Performance Index (MPI) (see FIG. 12B) as well as a reduction of the isovolumetric relaxation time (IVRT) (see FIG. 12C) and an increase in E to A peak ratio (E/A) (the ratio of the early (E) to late (A) ventricular filling velocities as a marker of the function of the left ventricle of the heart) (see FIG. 12D) indicate improvement of both global (MPI) and diastolic (IVRT and E/A) function of the heart, in particular for Bufalin.

For data set [8] the test system is unchanged. Briefly: Tissue Doppler Imaging, therapeutic model. The class given is in vivo. The conditions noted are these: therapeutic: Bufalin 0.5 mg/kg; week 8; vs AngII solvent control. As to the method: as §1, §2
(§4) Diastolic HF was induced in C57BL/6 mice and Bufalin were injected as indicated in Example 5. Eight weeks after the operation, cardiac function of the mice was assessed echocardiographically (n=3-6 per group) by treating the mice with said compounds (Bufalin: 0.5 mg/kg)
Echocardiographic measurements were performed using Tissue Doppler Imaging (TDI), which refers to a medical ultrasound technology mainly used in Echocardiography that measures the velocity of the heart muscle or myocardium through the phases of one or more heartbeats by the Doppler effect (frequency shift) of the reflected ultrasound (see FIG. 14).

The test system is the same in data set [9]. Kind of data set: 2-dimensional speckle-tracking strain echocardiography, therapeutic model. The conditions noted are these: therapeutic: Bufalin 0.5 mg/kg; week 8. It counts as in vivo. As to the method: as §1, §2, §4
Additionally, myocardial deformation was assessed using strain imaging such as 2-dimensional speckle-tracking strain echocardiography. Global longitudinal strain (GLS), a measure for the deformation of the myocardium, which decreases when diastolic dysfunction is present, is depicted in FIG. 15.

Another data set has as its system miRNA expression of HCFs. Kind of data set: High-throughput miRNA sequencing in HCFs. It counts as cell-based, human. Particulars: 1 μM, 24 h, vs DMSO. As to the method: HCFs were treated with 1 μM Bufalin for 24 h as indicated, total RNA was isolated and subjected to high-throughput miRNA sequencing profiling via deep sequencing, DMSO refers as a control. To perform a high-throughput miRNA sequencing the Illumine® TruSeq® Small RNA technology is used to prepare various RNA species which is known to the person skilled in the art. In view of said technology, advantages of the natural structure common to most known microRNA molecules are taken. Most mature miRNAs have a 5′-phosphate and a 3′-hydroxyl group as a result of the cellular pathway used to create them. Because of this, the Illumina adapters which are used are directly and specifically ligated to miRNAs. Thus, libraries for subsequent cluster generation are prepared, using total RNA as input. Further, adapter ligation, reverse transcription, PCR amplification, and pooled gel purification to generate a library product is applied as it is known to the skilled person in the art. […] Data represent pooled triplicates from 3 independent experiments. Representative experiment shown; the same experiment was performed with all the anti-fibrotic natural substances identified (see FIG. 16).

In the case of `O[C@H]1[C@H]2c3cc4c(cc3CN3CCC(=C[C@@H]1O)[C@H]23)OCO4` [Lycorine], the “end-diastolic pressure-volume relationship (EDPVR)” value in [1] was “significant reduction”. The “kidney and liver morphology (HE, PAS)” value in the data set with kidney and liver [2] was “does not induce necrosis, inflammation or any morphological changes”. In addition, the “kidney and liver morphology (HE, PAS)” value in the data set on kidney and liver [3] was “does not induce necrosis, inflammation or any morphological changes”. Besides, the “levels in the myocardium compared to the plasma” value in [4] is recorded as “higher levels in (A) the myocardium as compared to (B) the plasma”. Moreover, in [5], the “most effective amount (renal fibroblasts)” value was found to be 10 µM and the “proliferation of renal fibroblasts (NRK49F)” value was “significantly inhibits proliferation”. In data set [6], the “most effective amount (pulmonary fibroblasts)” value worked out at 10 µM and the “proliferation of pulmonary fibroblasts (HPFs)” value is reported as “significantly inhibits proliferation”.
Turning to `C[C@]12CC[C@H](O)C[C@H]1CC[C@@H]1[C@@H]2CC[C@]2(C)[C@@H](c3ccc(=O)oc3)CC[C@]12O` [Bufalin], in data set [7], the “E to A peak ratio” value is reported as “increase”, the “Myocardial Performance Index (MPI)” value is “decrease” and the “isovolumetric relaxation time (IVRT)” value is on record as “reduction”. Also, in data set [1], the “end-diastolic pressure-volume relationship (EDPVR)” value is on record as “significant reduction”. In addition, the “velocity of tissue motion in diastole (E′)” value in data set [8] is “recovers the velocity of tissue motion in diastole”. Moreover, in data set [9], the “ejection fraction (EF)” value is “remained comparable in all tested groups” and the “global longitudinal strain (GLS)” value is on record as “significant reversal of the downshift”. Further, in the data set on miRNA expression of HCFs, the “number of miRNAs downregulated in HCFs” value turned out to be 33 and the “number of miRNAs upregulated in HCFs” value was found to be 14. In addition, the “kidney and liver morphology (HE, PAS)” value in the data set with kidney and liver [2] is “does not induce necrosis, inflammation or any morphological changes”. The “kidney and liver morphology (HE, PAS)” value in the data set on kidney and liver [3] is given as “does not induce necrosis, inflammation or any morphological changes”. Also, the “levels in the myocardium compared to the plasma” value in data set [4] is “higher levels in (A) the myocardium as compared to (B) the plasma”. In [5], the “proliferation of renal fibroblasts (NRK49F)” value is “significantly inhibits only proliferation of pulmonary fibroblasts”. Moreover, in data set [6], the “most effective amount (pulmonary fibroblasts)” value was determined as 10 µM and the “proliferation of pulmonary fibroblasts (HPFs)” value is on record as “significantly inhibits”.
